Measurements as given in patent US11795159B2 (priority 2021, dated 2023).
Like-named read-outs stand apart in the source and are kept apart here.

Assays:
[1] = molecular target: SARS-CoV-2 3CLpro (Severe acute respiratory syndrome coronavirus 2 (2019-nCoV) (SARS-CoV-2), UniProt P0DTD1); test: biochemical
[2] = test system: SARS-CoV-2; test: microbe, parasite or virus in culture; assay type: cell-based; conditions: Severe acute respiratory syndrome coronavirus 2, 72 h, read-out: ID50 (Antiviral Data)
[3] = read-out: IC50 (SARS-CoV-2 3CLpro Inhibition)
[4] = IC50 (SARS-CoV-2 3CLpro Inhibition)

| Compound | IC50 [1, 3] [µM] | IC50 [1, 4] [µM] | IC50 [2] [µM] |
| --- | --- | --- | --- |
| C=CC(=O)N1CCCC1C(=O)N(c1ccc(C(C)(C)C)cc1)C(C(=O)NC(C)(C)C)c1cccnc1 (stereo not drawn) [Compound 1] | > 100 | – | – |
| C=C(C)C(=O)N1CCCC1C(=O)N(c1ccc(C(C)(C)C)cc1)C(C(=O)NC(C)(C)C)c1cccnc1 (stereo not drawn) [Compound 2] | – | > 100 | > 100 |
| C/C=C(\C)C(=O)N1CCCC1C(=O)N(c1ccc(C(C)(C)C)cc1)C(C(=O)NC(C)(C)C)c1cccnc1 (stereo not drawn) [Compound 3] | – | > 100 | > 100 |
| C=C(C)C(=O)N1CCCC1C(=O)N(c1ccc(C(C)(C)C)cc1)C(C(=O)NC(C)(C)C)c1cccnc1 (stereo not drawn) [Compound 4] | > 100 | – | – |
| CCC(=O)N1CCCC1C(=O)N(c1ccc(C(C)(C)C)cc1)C(C(=O)NC(C)(C)C)c1cccnc1 (stereo not drawn) [Compound 5] | – | > 100 | > 100 |
| C/C=C(\C)C(=O)N1CCC[C@@H]1C(=O)N(c1ccc(C(C)(C)C)cc1)C(C(=O)NC(C)(C)C)c1cccnc1 (stereo partly drawn) [Compound 6] | – | 10.1 to 100 | – |
| C/C=C/C(=O)N1CCCC1C(=O)N(c1ccc(C(C)(C)C)cc1)C(C(=O)NC(C)(C)C)c1cccnc1 (stereo not drawn) [Compound 7] | – | 1 to 10 | > 100 |
| C/C=C/C(=O)N1CCCC1C(=O)N(c1ccc(C(C)(C)C)cc1)C(C(=O)NC(C)(C)C)c1cccnc1 (stereo not drawn) [Compound 8] | – | 10.1 to 100 | – |
| C=CC(=O)N1CCC(C(=O)N(c2ccc(C(C)(C)C)cc2)C(C(=O)NC(C)(C)C)c2cccnc2)C1 (stereo not drawn) [Compound 9] | – | 10.1 to 100 | > 100 |
| C=CC(=O)N1CC[C@@H](C(=O)N(c2ccc(C(C)(C)C)cc2)C(C(=O)NC(C)(C)C)c2cccnc2)C1 (stereo partly drawn) [Compound 10] | – | 10.1 to 100 | – |
| C=CS(=O)(=O)N1CCCC1C(=O)N(c1ccc(C(C)(C)C)cc1)C(C(=O)NC(C)(C)C)c1cccnc1 (stereo not drawn) [Compound 11] | – | > 100 | > 100 |
| C=CC(=O)N1CCCC1C(=O)N(c1ccc(C(C)(C)C)cc1)C(C(=O)NC(C)(C)C)c1cccnc1 (stereo not drawn) [Compound 12] | – | > 100 | > 100 |
| C=CS(=O)(=O)N1CC[C@@H](C(=O)N(c2ccc(C(C)(C)C)cc2)C(C(=O)NC(C)(C)C)c2cccnc2)C1 (stereo partly drawn) [Compound 13] | – | > 100 | > 100 |
| C=CS(=O)(=O)N1CC[C@@H](C(=O)N(c2ccc(C(C)(C)C)cc2)C(C(=O)NC(C)(C)C)c2cccnc2)C1 (stereo partly drawn) [Compound 14] | > 100 | – | – |
| C=CC(=O)N1CCC(F)(F)CC1C(=O)N(c1ccc(C(C)(C)C)cc1)C(C(=O)NC(C)(C)C)c1cccnc1 (stereo not drawn) [Compound 15] | – | > 100 | > 100 |
